Assays:
[1] = target: recombinant human DPPI (Homo sapiens (Human), UniProt P53634); assay: Inhibition of Human DPPI (Cathepsin C); assay type: biochemical; details: substrate Gly-Arg-AMC, 30 min room temperature
Text: Inhibition of Human DPPI (Cathepsin C)
Materials: Microtiterplates (Optiplate-384 F) were purchased from PerkinElmer (Prod. No. 6007270). The substrate Gly-Arg-AMC was from Biotrend (Prod.-No. 808756 Custom peptide). Bovine serum albumin (BSA; Prod. No. A3059) and Dithiothreitol (DTT; Prod. No D0632) were from Sigma. TagZyme buffer was from Riedel-de-Haen (Prod.-No. 04269), NaCl was from Merck (Prod.-No. 1.06404.1000) and morpholinoethane sulfonic acid (MES), was from Serva (Prod.-No. 29834). The DPP1 inhibitor Gly-Phe-DMK was purchased from MP Biomedicals (Prod.-No. 03DK00625). The recombinant human DPPI was purchased from Prozymex. All other materials were of highest grade commercially available.
The following buffers were used: MES buffer: 25 mM MES, 50 mM NaCl, 5 mM DTT, adjusted to pH 6.0, containing 0.1% BSA; TAGZyme Buffer: 20 mM NaH2PO4, 150 mM NaCl adjusted to pH 6.0 with HCl
The recombinant human DPPI was diluted in TAGZyme buffer to 1 U/ml (38.1 μg/ml, respectively), and then activated by mixing in a 1:2 ratio with a Cysteamine aqueous solution (2 mM) and incubating for 5 min at room temperature.
Five uL test compound (final concentration 0.1 nM to 100 μM) in aqua bidest (containing 4% DMSO, final DMSO concentration 1%) were mixed with 10 μL of DPPI in MES buffer (final concentration 0.0125 ng/μL) and incubated for 10 min. Then, 5 μL of substrate in MES buffer (final concentration 50 μM) were added. The microtiter plates were then incubated at room temperature for 30 min. Then, the reaction was stopped by adding 10 μL of Gly-Phe-DMK in MES-buffer (final concentration 1 μM). The fluorescence in the wells was determined using a Molecular Devices SpectraMax M5 Fluorescence Reader (Ex 360 nm, Em 460 nm) or an Envision Fluorescence Reader (Ex 355 nm, Em 460 nm).
Each assay microtiter plate contained wells with vehicle controls (1% DMSO in bidest+0.075% BSA) as reference for non-inhibited enzyme activity (100% Ctl; high values) and wells with inhibitor (Gly-Phe-DMK, in bidest+1% DMSO+0.075% BSA, final concentration 1 μM) as controls for background fluorescence (0% Ctl; low values).
The analysis of the data was performed by calculating the percentage of fluorescence in the presence of test compound in comparison to the fluorescence of the vehicle control after subtracting the background fluorescence using the following formula: (RFU(sample)−RFU(background))*100/(RFU(control)−RFU(background))
Data from these calculations were used to generate IC50 values for inhibition of DPPI, respectively.

[2] = test system: Neutrophil elastase activity in U937 cells; assay: Neutrophil elastase activity in U937 cytosolic lysate after incubation with test compound; assay type: cell-based; details: Homo sapiens, U-937, U937 cells incubated 48 hours with compound, read-out: Reduction of NE-activity in U937 cells IC50
Description: Determination of Neutrophil Elastase Activity in U937 Cytosolic Lysate Preparation after Incubation with Test Compound
Optiplate 384F were purchased from PerkinElmer (Prod. No. #6007270). 24well Nunclon cell culture plates (No. 142475) and 96well plates (No. 267245) were from Nunc. Dimethylsulfoxid (DMSO) was from Sigma (Prod. No. D8418). Nonidet-P40 (NP40) was from USBiological (Prod. No. N3500)
Substrate, specific for Neutrophil elastase, was from Bachem (MeOSuc-Ala-Ala-Pro-Val-AMC; Prod. No. I-1270).
Human neutrophil elastase was from Calbiochem (Prod. No. 324681)
Tris-buffer (100 mM Tris; 1M NaCL; pH 7.5)
Tris-buffer+HSA 0.1%; Human Serum Albumin from Calbiochem (Cat#. 126658)
Serine-protease buffer (20 mM Tris; 100 mM NaCL; pH 7.5)+0.1% HSA
Serine protease lysis buffer: 20 mM Tris-HCL; 100 mM NaCl pH 7.5; +0.2% Nonidet-P40;
PBS: phosphate buffered saline, without Ca and Mg, from Gibco
U937 from ECACC (Cat. No. 85011440) cultured in suspension at 37° C. and 5% CO2.
Cell density: 0.2-1 Mio. Cells/ml.
Medium: RPMI1640 GlutaMAX (No. 61870) with 10% FCS from Gibco
Cell Seeding and Treatment:
Compounds in 100% DMSO were diluted in Medium (—FCS) with 10% DMSO and further diluted according to the experiment planned.
20 μl of the compound solution was transferred in the respective wells of the 24 well plate and diluted with 2 ml cell suspension/well containing […] (final concentration of DMSO=0.1%). Compound dilution factor=100
Compounds (up to 7 concentrations) were tested in triplicates with 3 wells for the DMSO 0.1% control, incubatet for 48 hours without medium change at 37° C., 5% CO2 and 95% relative humidity.
Cell Harvesting and Cell Lysate:
Transfer the cell suspension in 2.2 ml Eppendorf cups. Separate cells from medium by centrifugation (400×g; 5 min; RT); discard the supernatant. Resuspend in 1 ml PBS; centrifugation (400×g; 5 min; RT); wash cells twice with PBS. Add 100 μl Serin lysis buffer (ice cold) to the cell pellet; resuspend the pellet and store on ice for 15 minutes. Remove debris by centrifugation at 15000×g for 10 min at 4° C. Transfer 80-100 μl lysate supernatant in 96well plate and store immediately at −80° C.
Neutrophil Elastase Activity Assay:
Frozen lysates were thawn at 37° C. for 10 minutes and stored on ice. Protein content was determined with Bradford protein assay. Lysates were diluted to 0.2-0.5 mg/ml protein in serine protease buffer+HSA.
Standard: NE ([…] stocksolution in Tris-buffer; stored at −80° C.) was diluted in Tris-buffer+HSA to 750 ng/ml, and further serially diluted 1:2 for the standard curve.
Buffer, blank, standard and lysate samples were transferred into 384 well plate
Blank: 5 μl Tris-buffer+10 μl Tris-buffer+HSA+5 μl Substrate
Standard: 5 μl Tris-buffer+10 μl NE (diff.conc.)+5 μl Substrate
Lysate: 5 μl Tris-buffer+10 μl Lysat+5 μl Substrate
The increase in fluorescence (Ex360 nm/Em 460 nm) is determined over 30 minutes with a Molecular Device Spectramax M5 Fluorescence Reader. Kinetic Reduction (Vmax units/sec); 4 vmax points. The amount of neutrophil elastase (ng/ml) is calculated using the standard curve and the Spectramax software. The result is interpolated to ng/mg lysate protein using excel formula functions. Percent inhibition in the compound-treated lysate samples is calculated relative to the DMSO-treated control-sample (100−(compound-sample*100)/control-sample)
IC50 is calculated using Graphpad Prism; nonlinear fitting (log(inhibitor) vs. response—Variable slope).

recombinant human DPPI, sequence (P53634 231-394): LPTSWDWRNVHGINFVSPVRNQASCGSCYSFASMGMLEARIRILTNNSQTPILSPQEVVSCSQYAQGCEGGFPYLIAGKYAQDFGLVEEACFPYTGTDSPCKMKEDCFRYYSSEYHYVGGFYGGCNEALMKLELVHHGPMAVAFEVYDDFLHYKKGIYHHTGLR
recombinant human DPPI, sequence (P53634 395-463): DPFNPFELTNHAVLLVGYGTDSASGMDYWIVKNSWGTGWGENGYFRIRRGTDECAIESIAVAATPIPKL
recombinant human DPPI, sequence (P53634 25-134): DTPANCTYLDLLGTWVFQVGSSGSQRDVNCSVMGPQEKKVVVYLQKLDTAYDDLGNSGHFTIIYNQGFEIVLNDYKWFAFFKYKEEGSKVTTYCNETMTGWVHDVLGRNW

`CS(=O)(=O)c1ccc(-c2ccc(C[C@@H](C#N)NC(=O)C34CCC(CC3)CN4)c(F)c2)cc1` [Example 21, N-[(1S)-1-cyano-2-[2-fluoro-4-(4-methanesulfonylphenyl)phenyl]ethyl]-2-azabicyclo[2.2.2]octane-1-carboxamide] showed an IC50 [1] of 17 nM and an IC50 [2] of 48 nM.
`CN1Cc2cc(-c3ccc(C[C@@H](C#N)NC(=O)C45CCC(CC4)CN5)cc3)ccc2C1=O` [Example 4] showed an IC50 [1] of 50.1 nM and an IC50 [2] of 86 nM.
With `COCCN1C(=O)Cc2ccc(-c3ccc(C[C@@H](C#N)NC(=O)C45CCC(CC4)CN5)c(F)c3)cc21` [Example 26] the IC50 [1] was 4.3 nM and the IC50 [2] was 13 nM.
With `N#C[C@H](Cc1ccc(-c2ccc3c(c2)CCNC3=O)cc1F)NC(=O)C12CCC(CC1)CN2` [Example 22] the IC50 [1] was 6.8 nM and the IC50 [2] was 7 nM.
`N#C[C@H](Cc1ccc(-c2ccc3c(c2)NC(=O)C3)cc1F)NC(=O)C12CCC(CC1)CN2` [Example 23] showed an IC50 [1] of 6.6 nM and an IC50 [2] of 33 nM.
`N#C[C@H](Cc1ccc(-c2csc(C(N)=O)c2)cc1F)NC(=O)C12CCC(CC1)CN2` [Example 31] showed an IC50 [1] of 4.3 nM and an IC50 [2] of 73 nM.
`CN1C(=O)Cc2ccc(-c3ccc(C[C@@H](C#N)NC(=O)C45CCC(CC4)CN5)c(F)c3)cc21` [Example 28] was tested, and the IC50 [1] was 4.9 nM and the IC50 [2] was 13 nM.
`CN1C(=O)Cc2ccc(-c3ccc(C[C@@H](C#N)NC(=O)C45CCC(CC4)CN5)cc3)cc21` [Example 2] was tested, and the IC50 [1] was 17.1 nM and the IC50 [2] was 27 nM.
`CC1(C)OC(=O)c2ccc(-c3ccc(C[C@@H](C#N)NC(=O)C45CCC(CC4)CN5)c(F)c3)cc21` [Example 27] gave an IC50 [1] of 2.2 nM and an IC50 [2] of 7 nM.

Reference: US8889708B2 (Boehringer Ingelheim International GmbH, priority 2013, dated 2014)
